One molecule from patent EP3797781A1, “USE OF EC-7072 AND SYNERGIC COMPOSITIONS THEREOF IN TREATMENT OF CHRONIC LYMPHOCYTIC LEUKEMIA” (priority 2019, dated 2021) can be followed below.

The experiment has as its system primary CLL cells. Description: Leukemia cell viability and apoptosis by DiOC6(3)/PI staining and flow cytometry. The format is cell-based, human. On the procedure:
Cell viability and apoptosis were evaluated by double-staining with the mitochondrial inner transmembrane potential (ΔΨm)-sensitive dye DiOC6(3) (3,3'-dihexyloxacarbocyanine iodide; Sigma-Aldrich) and the exclusion dye propidium iodide (PI; Immunostep), allowing identification of apoptotic [DiOC6(3)^low PI^-] and dead [PI^+] cells as per Proc. Natl. Acad. Sci. U.S.A. (2014) 111(8):3020-3025 and Methods Mol. Biol. (2016) 1419:1-16. Briefly, PBMCs were resuspended in culture medium containing 20 nM DiOC6(3) and incubated for 30 minutes at 37 °C. Then, PI (1 µg/mL) was added and cells were further incubated for 10 minutes at room temperature (RT). Cells were analyzed by flow cytometry considering DiOC6(3)^+PI^- cells as viable. In some experiments, apoptosis was evaluated by staining with Annexin V/PI. Thus, PBMCs were incubated in Annexin V binding buffer containing 5 µg/mL Annexin V-FITC (Biolegend) for 15 minutes at RT and PI (1 µg/mL) was subsequently added. Data were normalized to the untreated control as a percentage. Only samples with at least 60% of viable cells (DiOC6(3)^+; Annexin V^-) in the control (DMSO) condition were employed in this study.
The in vitro cytotoxic activity of EC-7072 against primary CLL cells was assessed by: • (i) incubating PBMCs isolated from patients with CLL (n = 13) following treatment with increasing concentrations of EC-7072 (0 - 400 nM) for 24 hours. Numbers of leukemia cells were evaluated by flow cytometry and normalized to their respective control (DMSO) condition for each individual patient to obtain percentage of leukemia cells (Figure 1A); • (ii) incubating PBMCs from patients with CLL (n = 10) with or without EC-7072 (100-400 nM) for 24 hours. Viability of leukemia cells was determined by cytofluorometric assessment of DiOC6(3)/PI staining and normalized to their respective control condition to obtain percentage viability (Figure 1B); • (iii) incubating PBMCs from patients with CLL (n = 10) with increasing concentrations of EC-7072 (0 - 400 nM) for 24 hours. Apoptosis of leukemia cells was determined by DiOC6(3)/PI staining and flow cytometry to obtain the mean percentages of apoptotic [DiOC6(3)^low PI^-] and dead [PI^+] cells (Figure 1C); • (iv) incubating PBMCs from patients with CLL (n = 10) with or without EC-7072 (200 nM) for 12 to 72 hours. Viability of leukemia cells was determined by DiOC6(3)/PI staining and normalized to their respective control condition to obtain percentage viability (Figure 1D); • (v) incubating PBMCs from patients with CLL (n = 24) with MTA (200 nM) or EC-7072 (200 nM) for 24 hours. Leukemia cell death was determined by DiOC6(3)/PI staining and flow cytometry to obtain the mean percentages of apoptotic [DiOC6(3)^low PI^-] and dead [PI^+] cells (Figure 1E); • (vi) incubating PBMCs from patients with CLL (n = 63) or healthy donors (n = 20) with or without EC-7072 (200 nM) for 24 hours. Viability of leukemia cells and healthy B cells was evaluated by DiOC6(3)/PI staining and normalized to their respective control condition to obtain percentage viability (Figure 1F); • (vii) incubating PBMCs from patients with CLL (n = 62) following treatment with EC-7072 (200 nM) for 24 hours and obtaining a cytogenetic profile for each patient. Viability of leukemia cells was evaluated by DiOC6(3)/PI staining and normalized to their respective control (DMSO) condition for each individual patient to obtain the percentage of viable [DiOC6(3)^+] cells (Figure 1G); • (viii) incubating PBMCs from patients with CLL (n = 59) following treatment with EC-7072 (200 nM) for 24 hours and determining mutational status of IgHV for each patient. Viability of leukemia cells was evaluated by DiOC6(3)/PI staining and normalized to their respective control (DMSO) condition for each individual patient to obtain the percentage of viable [DiOC6(3)^+] cells (Figure 1H). […]

Consider `CO[C@@H]([C@@H]1Cc2cc3cc(O[C@H]4C[C@@H](O[C@H]5C[C@@H](O)[C@H](O)[C@@H](C)O5)[C@H](O)[C@@H](C)O4)c(C)c(O)c3c(O)c2C(=O)[C@H]1O[C@H]1C[C@@H](O[C@H]2C[C@@H](O[C@H]3C[C@](C)(O)[C@H](O)[C@@H](C)O3)[C@@H](O)[C@@H](C)O2)[C@H](O)[C@@H](C)O1)[C@@H](O)C(C)=O` [EC-7072, mithramycin SK], for which the “cell death at 6 hours” value (200 nM, 6 hours, PBMCs from patients with CLL (n = 8), Figure 6C) is “not triggering detectable cell death”. Besides, under “200 nM, 8 hours, n = 8, Figure 7K”, the “CLL cell death at 8 hours” value is on record as “does not result in noticeable CLL cell death”. Also, the “ratio of apoptosis in CLL cells relative to CLL cell death” value (200 nM, 24 hours, PBMCs from patients with CLL (n = 6), exception: EC-14041, Figure 2P) is given as “higher ratio of apoptosis in CLL cells relative to CLL cell death than other mithralogs”. The “antileukemic activity (apoptotic [DiOC6(3)^low PI^-] and dead [PI^+] cells)” value (200 nM, 24 hours, PBMCs from patients with CLL (n = 24), compared with MTA 200 nM, Figure 1E) is reported as “comparable to that of MTA”. For the same molecule, for the setting “200 nM, 24 hours, isolated leukemia cells from patients with CLL (n = 24)”, the “antileukemic activity on isolated leukemia cells versus PBMCs (apoptotic and dead cells)” value is reported as “mimicked”. For the same molecule, the “viability of leukemia cells by mutational status of IgHV” value (200 nM, 24 hours, n = 59, Figure 1H) is reported as “did not significantly affect the sensitivity”. In addition, under “200 nM, 24 hours, n = 62, patients with cytogenetic aberrations incl. del(17p) or del(11q), Figure 1G”, the “viability of leukemia cells by cytogenetic profile” value is “no differences in the sensitivity”. In addition, the “viability of leukemia cells” value (100 - 400 nM for 24 hours, 200 nM for 12 to 72 hours, PBMCs from patients with CLL (n = 10), dose- and time-dependent, Figures 1B-1D) is listed as “significantly decreased”. Also, the “leukemia cell survival upon BCR stimulation with anti-IgM antibodies” value (EC-7072 200 nM in combination with α-IgM (10 µg/mL), 24 hours, n = 15) was “significantly rescued leukemia cell survival”. Moreover, the “leukemia cell death in the presence of microenvironment-derived soluble factors” value (EC-7072 200 nM with CD40L (100 ng/mL), BAFF (50 ng/mL), TNF-α (40 ng/mL), IL-6 (40 ng/mL) or IL-4 (40 ng/mL), 24 hours, n = 7) is reported as “none of the soluble factors tested significantly affected the leukemia cell death”. Under “co-culture with OP9 cells 72 hours, EC-7072 200 nM for the last 24 hours, n = 7”, the “leukemia cell viability in co-culture with OP9 stromal cells” value is on record as “did not enhance leukemia cell viability”. Moreover, where the note is “each at 200 nM, 24 hours, PBMCs from patients with CLL (n = 10), Figure 2M”, the “percentage viability of leukemia cells, comparison of mithralogs” value is “second only to the mithralog EC-7073”. Further, under “range of doses, EC-7072 and fludarabine 24 hours, idelalisib 48 hours, n = 4 - 6, Figure 4A”, the “CLL cell viability compared with idelalisib or fludarabine” value is “reduced CLL cell viability to a greater extent than idelalisib or fludarabine”.
